Common to all, as to type: functional
Test [1] deals with Enterococcus faecium. Put plainly: Antimicrobial activity against vancomycin-sensitive Enterococcus faecium 160119481 assessed as inhibition of bacterial growth by microtiter plate reader assay.
For test [2], the system named is Staphylococcus aureus. Nature of the test: Antimicrobial activity against methicillin-resistant Staphylococcus aureus 11646 assessed as inhibition of bacterial growth by microtiter plate reader assay.
The subject of test [3] is Escherichia coli. Nature of the test: Antimicrobial activity against Escherichia coli ATCC 25922 assessed as inhibition of bacterial growth by microtiter plate reader assay.
Test [4] deals with Staphylococcus aureus. Put plainly: Antimicrobial activity against Staphylococcus aureus ATCC 6538 assessed as inhibition of bacterial growth by microtiter plate reader assay.
Test [5] deals with Enterococcus faecium. Nature of the test: Antimicrobial activity against vancomycin-resistant Enterococcus faecium 151458137 assessed as inhibition of bacterial growth by microtiter plate reader assay.

Values after ≈ are worked out from the molar mass of the structure shown.

Take `CC[C@H](C)[C@@H]1NC(=O)CNC(=O)[C@H](CC(C)C)N(C)C(=O)[C@H]([C@@H](C)CC)NC(=O)[C@H]([C@@H](C)O)N(C)C(=O)[C@H](Cc2ccccc2)NC(=O)CNC(=O)[C@@H](CC(C)C)N(C)C(=O)[C@H]([C@@H](C)CC)NC(=O)[C@H](CO)NC1=O`: the MIC in test [1] was 8 mg/L (≈ 7.57 µM); in test [2], more than 128 mg/L; in test [3] it was more than 128 mg/L; in test [4], 8 mg/L (≈ 7.57 µM); in test [5], 8 mg/L (≈ 7.57 µM).

On to `CC[C@H](C)[C@@H]1NC(=O)[C@H]([C@@H](C)O)N(C)C(=O)[C@H](Cc2ccccc2)NC(=O)CNC(=O)[C@@H](CC(C)C)N(C)C(=O)[C@H](CC(C)C)NC(=O)[C@H](CO)NC(=O)[C@H](CC(C)C)NC(=O)CNC(=O)[C@H](CC(C)C)N(C)C1=O`, for which the minimal inhibitory concentration (MIC) in test [1] is 8 mg/L (≈ 7.57 µM); in test [2] it was more than 128 mg/L; in test [3] it was more than 128 mg/L; in test [4], 8 mg/L (≈ 7.57 µM); in test [5], 8 mg/L (≈ 7.57 µM).

As for `CC[C@H](C)[C@@H]1NC(=O)[C@H](CO)NC(=O)[C@H](CC(C)C)NC(=O)CNC(=O)[C@H](CC(C)C)N(C)C(=O)[C@H]([C@@H](C)CC)NC(=O)[C@H]([C@@H](C)O)N(C)C(=O)[C@H](Cc2ccccc2)NC(=O)CNC(=O)[C@@H](CC(C)C)N(C)C1=O`, the MIC in test [1] was 8 mg/L (≈ 7.57 µM); in test [2], more than 128 mg/L; in test [3], more than 128 mg/L; in test [4], 8 mg/L (≈ 7.57 µM); in test [5] it was 8 mg/L (≈ 7.57 µM).

As to `CC[C@H](C)[C@@H]1NC(=O)CNC(=O)[C@H](CC(C)C)N(C)C(=O)[C@H]([C@@H](C)CC)NC(=O)[C@H]([C@@H](C)O)N(C)C(=O)[C@H](Cc2ccccc2)NC(=O)CNC(=O)[C@@H](CC(C)C)N(C)C(=O)[C@H](CC(C)C)NC(=O)[C@H](CO)NC1=O`, the minimal inhibitory concentration (MIC) in test [1] is 8 mg/L (≈ 7.57 µM); in test [2] it was more than 128 mg/L; in test [3], more than 128 mg/L; in test [4] it was 8 mg/L (≈ 7.57 µM); in test [5], 8 mg/L (≈ 7.57 µM).

On to `NC[C@H]1O[C@H](O[C@H]2[C@H](O)[C@@H](O[C@H]3O[C@H](CO)[C@@H](O)[C@H](N)[C@H]3O)[C@H](N)C[C@@H]2N)[C@H](N)[C@@H](O)[C@@H]1O` [BEKANAMYCIN], for which, in test [3], the MIC came out at 32 mg/L (≈ 66.2 µM).

Values taken from ChEMBL document CHEMBL5316367, “Mass Spectrometry-Guided Discovery of Multi-N-Methylated Cyclodecapeptides Auyuittuqamides E-H from Sesquicillium sp. QL0466” (2023).
